# Assay results from patent US11001569B2, “6-membered heteroaromatic substituted cyanoindoline derivatives as NIK inhibitors” (Janssen Pharmaceutica NV, priority 2016, dated 2021).
# Like-named read-outs stand apart in the source and are kept apart here.
# Columns and labels:
# [1] = tested on: KMS12-BM (NIK WT) multiple myeloma cells; assay: Antiproliferative activity on KMS12-BM multiple myeloma cells (CellTiter-Glo); assay type: cell-based, human; settings: 96 hr treatment, averaged values, read-out: KMS-12 Proliferation inhibition (IC50 (nM))
# How it was run: (§1)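 Cells plated at 15000 (JJN3) or 20000 (KMS12BM) per well and treated 96 h at 37° C, 5% CO2, final DMSO 0.3%, 9-point 1:3 dilutions. Viability by CellTiter-Glo luminescence; time-zero blank subtracted, growth expressed as percent of untreated control.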
# [2] = tested on: JJN-3 (NIK translocated) multiple myeloma cells; assay: Antiproliferative activity on JJN-3 multiple myeloma cells (CellTiter-Glo); assay type: cell-based, human; settings: JJN-3 (NIK translocated) cells, 96 hr treatment, averaged values, read-out: JJN-3 Proliferation inhibition (IC50 (nM))
# How it was run: as §1
# [3] = target: recombinant human NF-kappaB-inducing Kinase (NIK/MAP3K14) (Homo sapiens, UniProt Q99558); assay: Inhibition of auto-phosphorylation of recombinant human NIK/MAP3K14 activity (AlphaScreen); assay type: biochemical; settings: 25 microM ATP, averaged over all measurements on all batches
# Sequence of recombinant human NF-kappaB-inducing Kinase (NIK/MAP3K14) (Q99558 whole entry): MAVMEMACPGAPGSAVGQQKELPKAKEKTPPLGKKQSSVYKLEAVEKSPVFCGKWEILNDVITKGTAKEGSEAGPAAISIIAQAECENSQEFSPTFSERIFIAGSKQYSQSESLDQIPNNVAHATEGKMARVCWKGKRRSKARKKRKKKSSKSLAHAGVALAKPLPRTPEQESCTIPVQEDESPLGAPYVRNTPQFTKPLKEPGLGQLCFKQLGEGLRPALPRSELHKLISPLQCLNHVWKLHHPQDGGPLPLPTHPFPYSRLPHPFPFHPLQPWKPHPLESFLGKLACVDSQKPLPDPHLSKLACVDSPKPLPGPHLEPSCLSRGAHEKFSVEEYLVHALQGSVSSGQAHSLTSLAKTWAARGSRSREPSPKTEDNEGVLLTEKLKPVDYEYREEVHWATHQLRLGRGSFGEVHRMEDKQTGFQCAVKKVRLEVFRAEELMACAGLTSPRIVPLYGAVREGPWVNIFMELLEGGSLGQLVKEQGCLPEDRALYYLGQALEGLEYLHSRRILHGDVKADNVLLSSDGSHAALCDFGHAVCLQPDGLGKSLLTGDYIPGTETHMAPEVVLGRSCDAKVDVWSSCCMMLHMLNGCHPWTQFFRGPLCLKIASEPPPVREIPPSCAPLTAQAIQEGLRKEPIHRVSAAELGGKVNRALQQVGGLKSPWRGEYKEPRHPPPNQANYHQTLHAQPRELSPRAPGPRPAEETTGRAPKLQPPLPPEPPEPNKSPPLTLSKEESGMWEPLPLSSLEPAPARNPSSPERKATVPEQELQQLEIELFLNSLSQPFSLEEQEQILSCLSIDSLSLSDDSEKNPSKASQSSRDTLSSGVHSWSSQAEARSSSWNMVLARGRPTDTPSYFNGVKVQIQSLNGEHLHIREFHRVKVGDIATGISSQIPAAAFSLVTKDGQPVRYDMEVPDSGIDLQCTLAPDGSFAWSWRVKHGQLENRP
# [4] = tested on: P-IKKα levels in L363 (NIK translocated multiple myeloma) cells; assay: Effect of compounds on P-IKKα levels in L363 cells (Mesoscale sandwich immuno-assay); assay type: cell-based, human; settings: 2 hr treatment, averaged values, read-out: Inhibition of pIKKα_L-363 (IC50 (nM))
# Experimental: Effect of Compounds on P-IKKα Levels in L363 (NIK Translocated Multiple Myeloma) Cells
# All compounds tested were dissolved in DMSO and further dilutions were made in culture medium. Final DMSO concentration was 1% (v/v) in cell assays. The human L363 cells (ATCC) were cultured in RPMI 1640 medium supplemented with GlutaMax and 10% fetal calf serum (PAA). Cells were routinely maintained at densities of 0.2×10^6 cells per ml-1×10^6 cells per ml at 37° C. in a humidified 5% CO2 atmosphere. Cells were passaged twice a week splitting back to obtain the low density. Cells were seeded in 96 well plates (Nunc 167008) at 2×10^6 per ml media in a volume of 75 μl per well plus 25 μl 1 μg/ml recombinant human B-cell activating factor (BAFF/BLyS/TNFSF13B). Seeded cells were incubated at 37° C. in a humidified 5% CO2 atmosphere for 24 hr. Drugs and/or solvents were added (20 μl) to a final volume of 120 μl. Following 2 hr treatment plates were removed from the incubator and cell lysis was achieved by the addition of 30 μl 5× lysis buffer followed by shaking on a plate shaker at 4° C. for 10 min. At the end of this incubation lysed cells were centrifuged at 800×g for 20 min at 4° C. and the lysate was assessed for P-IKK levels by sandwich immuno-assay carried out in anti-rabbit antibody coated Mesoscale plates. Within an experiment, the results for each treatment were the mean of 2 replicate wells. For initial screening purposes, compounds were tested using an 8 point dilution curve (serial 1:3 dilutions). […] The blank incubation value was subtracted from all control and sample values. To determine the IC50 a sigmoidal curve was fitted to the plot of % inhibition of control P-IKKα levels versus Log10 compound concentration.
Structure (SMILES),"IC50 ([1]; Homo sapiens, KMS-12-BM, 96 h) [nM]","IC50 ([2]; Homo sapiens, JJN-3, 96 h) [nM]",IC50 [3] [nM],"IC50 ([4]; Homo sapiens, L-363, 2 h) [nM]",IC50 [1] [nM],IC50 [2] [nM],IC50 [4] [nM],melting point [°C]
Cc1cnc(CCC(=O)N(C)C)c(Nc2nccc(-c3cc(C#N)c4c(c3)[C@@](C)(CO)CN4)n2)c1 [Compound 80],> 10000,525,3.7,38.9,,,,
CC(C)(CO)Oc1ncc(C#N)cc1Nc1nccc(-c2cc(C#N)c3c(c2)[C@@](C)(CO)CN3)n1 [Compound 78],> 10000,589,4.7,28.2,,,,
CC(C)Oc1ncc(C#N)cc1Nc1nccc(-c2cc(C#N)c3c(c2)[C@@](C)(CO)CN3)n1 [Compound 75],> 10000,> 10000,9.8,18.2,,,,
COCCOc1nc(C2CCOCC2)ncc1Nc1nccc(-c2cc(C#N)c3c(c2)[C@@](C)(CO)CN3)n1 [Compound 141],4790,741,18.6,355,,,,
Cc1cc(Nc2nccc(-c3cc(C#N)c4c(c3)C(C)(C)CN4)n2)c(=O)n(CCN2CC(F)C2)c1 [Compound 27i],> 10000,148,5.8,13.8,,,,
COc1nc(C2CCOCC2)ncc1Nc1nccc(-c2cc(C#N)c3c(c2)[C@@](C)(CO)CN3)n1 [Compound 140],> 10000,427,4.8,12,,,,
Cc1cc(Nc2nccc(-c3cc(C#N)c4c(c3)[C@@](C)(CO)CN4)n2)c(=O)n(CCN2CCOCC2)c1 [Compound 7i],9550,115,1.2,3.7,,,,
Cc1cc(Nc2nccc(-c3cc(C#N)c4c(c3)[C@@](C)(CO)CN4)n2)c(CCC2CC2)nc1P(C)(C)=O [Compound 96],> 10000,65,2.2,1.1,,,,
COc1ncccc1Nc1nccc(-c2cc(C#N)c3c(c2)C(C)(C)CN3)n1 [Compound 97],> 10000,1820,9.8,42.7,,,,
CN1CCC(c2cc(Nc3nccc(-c4cc(C#N)c5c(c4)[C@@](C)(CO)CN5)n3)c(=O)n(CC3CC3)c2)CC1 [Compound 21i],,,64.6,550,,,,
Cc1cnc(OC2CCN(C)CC2F)c(Nc2nccc(-c3cc(C#N)c4c(c3)[C@@](C)(CO)CN4)n2)c1 (mixture of isomers) [Compound 171],,,7.4,,> 10000,12,6.9,
COCCCc1ccc(Nc2nccc(-c3cc(C#N)c4c(c3)[C@@](C)(CO)CN4)n2)c(OC)n1 [Compound 58],> 10000,200,6.9,~17,,,,
Cc1cc(Nc2nccc(-c3cc(C#N)c4c(c3)[C@@](C)(CO)CN4)n2)c(=O)n(CCC2CC2)c1 [Compound 5i],5010,282,4.5,15.8,,,,
Cc1cnc(/C=C/C(=O)N(C)C)c(Nc2nccc(-c3cc(C#N)c4c(c3)[C@@](C)(CO)CN4)n2)c1 [Compound 84],> 10000,4680,5.6,11.8,,,,
COCCOc1ncc(C2CC2)cc1Nc1nccc(-c2cc(C#N)c3c(c2)[C@@](C)(CO)CN3)n1 [Compound 67],> 10000,204,12.3,186,,,,
CNC(=O)c1ncc(Cl)cc1Nc1nccc(-c2cc(C#N)c3c(c2)C(C)(CO)CN3)n1 (stereo not drawn) [Compound 178],,,18.2,51.3,,,,
COc1ncccc1Nc1nccc(-c2cc(C#N)c3c(c2)C(C)(CO)CN3)n1 (stereo not drawn) [Compound 1],~2690,79,,81.3,,,,
C[C@]1(CO)CNc2c(C#N)cc(-c3ccnc(Nc4cc(C#N)cnc4OC4CC4)n3)cc21 [Compound 85],> 10000,372,2.5,3,,,,
CC1(CO)CNc2c(C#N)cc(-c3ccnc(Nc4cc(Cl)cnc4C(=O)N4CCCC4)n3)cc21 (stereo not drawn) [Compound 179],,,93.3,1440,,,,
COc1ncccc1Nc1ncnc(-c2cc(C#N)c3c(c2)[C@@](C)(CO)CN3)n1 [Compound 181],,,5.2,25.1,,,,
CNC(=O)c1cnc(CCC2CC2)c(Nc2nccc(-c3cc(C#N)c4c(c3)[C@@](C)(CO)CN4)n2)c1 [Compound 87],> 10000,427,3.8,27.5,,,,
Cc1cc(Nc2nccc(-c3cc(C#N)c4c(c3)[C@@](C)(CO)CN4)n2)c(C)nc1OC1CCN(C)CC1 [Compound 172],~2190,26,4.1,3.9,,,,
COc1nc(N(C)C)c(Cl)cc1Nc1nccc(-c2cc(C#N)c3c(c2)C(C)(C)CN3)n1 [Compound 99],> 10000,708,123,275,,,,
Cc1cnc(CCC2CC2)c(Nc2nccc(-c3cc(C#N)c4c(c3)[C@@](C)(CO)CN4)n2)c1 [Compound 68],5130,98,3.9,~20,,,,
COCCOc1nc(P(C)(C)=O)ccc1Nc1nccc(-c2cc(C#N)c3c(c2)[C@@](C)(CO)CN3)n1 [Compound 60],> 10000,708,7.2,70.8,,,,
CNC(=O)c1cc(Nc2nccc(-c3cc(C#N)c4c(c3)[C@@](C)(CO)CN4)n2)c(=O)n(CC2CC2)c1 [Compound 25i],> 10000,120,1.7,9.5,,,,
Cc1cc(Nc2ncc(F)c(-c3cc(C#N)c4c(c3)[C@@](C)(CO)CN4)n2)c(C)cn1 [Compound 158],> 10000,49,1.6,2.3,,,,
CC(C)Oc1nc(P(C)(C)=O)ccc1Nc1nccc(-c2cc(C#N)c3c(c2)[C@@](C)(CO)CN3)n1 [Compound 57],~8130,316,4.3,13.8,,,,
COc1ncccc1Nc1nccc(-c2cc(C#N)c3c(c2)C(C)(CNC(C)=O)CN3)n1 (stereo not drawn) [Compound 115],6310,741,10,,,,,203
COc1cnccc1Nc1nccc(-c2cc(C#N)c3c(c2)[C@@](C)(CO)CN3)n1 [Compound 20],> 10000,1580,0.9,,,,,> 260
